We go through eight compounds from patent US20230250096A1, “SUBSTITUTED PHENYL-1H-PYRROLO[2,3-c] PYRIDINE DERIVATIVES” (Janssen Pharmaceutica NV, priority 2021, published 2023).

For the experiment, the system named is OCI-AML3 cells. The experiment can be described thus: Proliferation assay (spheroid confluence, 8 days), OCI-AML3. It counts as cell-based, human. Conditions: Homo sapiens, OCI-AML-3, OCI-AML3; read-out: spheroid assay_OCI-AML3 IC50. As for the experimental part: The anti-proliferative effect of menin/MLL protein/protein interaction inhibitor test compounds was assessed in human leukemia cell lines. The cell line MOLM14 harbors a MLL translocation and expresses the MLL fusion protein MLL-AF9, respectively, as well as the wildtype protein from the second allele. OCI-AML3 cells that carry the NPM1c gene mutation were also tested. […] KO-52 was used as a control cell line containing two MLL (KMT2A) wildtype alleles in order to exclude compounds that display general cytotoxic effects.
MOLM14 cells were cultured in RPMI-1640 (Sigma Aldrich) supplemented with 10% heat-inactivated fetal bovine serum (HyClone), 2 mM L-glutamine (Sigma Aldrich) and 50 μg/ml gentamycin (Gibco). KO-52 and OCI-AML3 cell lines were propagated in alpha-MEM (Sigma Aldrich) supplemented with 20% heat-inactivated fetal bovine serum (HyClone), 2 mM L-glutamine (Sigma Aldrich) and 50 μg/ml gentamycin (Gibco).
In order to assess the anti-proliferative effects, 200 MOLM14 cells, 200 OCI-AML3 cells or 300 KO-52 cells were seeded in 200 μl media per well in 96-well round bottom, ultra-low attachment plates (Costar, catalogue number 7007). Cell seeding numbers were chosen based on growth curves to ensure linear growth throughout the experiment. Test compounds were added at different concentrations and the DMSO content was normalized to 0.3%. Cells were incubated for 8 days at 37° C. and 5% CO2. Spheroid like growth was measured in real-time by live-cell imaging (IncuCyteZOOM, Essenbio, 4×objective) acquiring images at day 8. Confluence (%) as a measure of spheroid size was determined using an integrated analysis tool.
In order to determine the effect of the test compounds over time, the confluence in each well as a measure of spheroid size, was calculated. Confluence of the highest dose of a reference compound was used as baseline for the LC (Low control) and the confluence of DMSO treated cells was used as 0% cytotoxicity (High Control, HC).
Absolute IC50 values were calculated as percent change in confluence as follows:
LC=Low Control: cells treated with e.g. 1 μM of the cytotoxic agent staurosporin, or e.g. cells treated with a high concentration of an alternative reference compound
HC=High Control: Mean confluence (%) (DMSO treated cells)
% Effect=100−(100*(Sample−LC)/(HC−LC))
GraphPad Prism (version 7.00) was used to calculate the IC50. Dose-response equation was used for the plot of % Effect vs Log10 compound concentration with a variable slope and fixing the maximum to 100% and the minimum to 0%.
The IC50 is the concentration at which inhibition is half-maximal. Take `Cc1cncc2c1c(C[C@H]1CCN(CC3CCOCC3)C1)cn2-c1ccc(F)cc1C(=O)N(C)C(C)C` (single isomer, unassigned) [Compound 43]: the IC50 is 23 nM.

On to `Cc1cncc2c1c(C[C@H]1CCN([C@@H](C)C3CCOCC3)C1)cn2-c1ccc(F)cc1C(=O)N(C)C(C)C` (single isomer, unassigned) [Compound 49b], for which the IC50 came to 7 nM. As to `COCC(=O)N1CCC(CN2CCC(Cc3cn(-c4ccc(F)cc4C(=O)N(C)C(C)C)c4cncc(C)c34)C2)CC1` (single isomer, unassigned) [Compound 59], the 50% inhibitory concentration (IC50) is 12 nM. In the case of `Cc1cncc2c1c(CC1CCN(CC3CCN(C(=O)CC#N)CC3)C1)cn2-c1ccc(F)cc1C(=O)N(C)C(C)C` (single isomer, unassigned) [Compound 60], the IC50 turned out to be 13 nM. On to `Cc1cncc2c1c(C[C@H]1CCN(C[C@H]3CC[C@H](NS(C)(=O)=O)CC3)C1)cn2-c1ccc(F)cc1C(=O)N(C)C(C)C` (single isomer, unassigned) [Compound 69], for which the IC50 was 21 nM. In the case of `CNC(=O)[C@H]1CC[C@H](CN2CCC(Cc3cn(-c4ccc(F)cc4C(=O)N(C)C(C)C)c4cncc(C)c34)C2)CC1` (single isomer, unassigned) [Compound 70] it was 68 nM; in that of `Cc1cncc2c1c(C[C@@H]1CCN(CC3CCOCC3)C1)cn2-c1ccc(F)cc1C(=O)N(C[C@H](C)O)C(C)C` (single isomer, unassigned) [Compound 365b], 11 nM. The figure for `CC(=O)N1CCC(CN2CC(Cc3cn(-c4ccc(F)cc4C(=O)N(C)C(C)C)c4cncc(C)c34)C2)CC1` [Compound 63] is 121 nM.
